Calls of active or inactive are those of the source. No cut-off for these calls is given here.
Experiments:
[1] = test system: BMDC; assay: Anti-inflammatory activity against R848 stimulated-mouse BMDC cells assessed as downregulation of IL-6 production by ELISA method; type: functional, cell-based
[2] = biological target: Cyclin-dependent kinase 8 (Homo sapiens) (UniProt P49336); assay: Inhibition of CDK8 in human HCT-116 cells assessed as STAT-1 phosphorylation at Ser727 at 1 to 4 uM treated for 24 hrs by western blot analysis; type: cell-based; conditions: dose 1-4 µM
[3] = test system: Mus musculus; assay: Anti-inflammatory activity in C57BL/6 mouse model of inflammatory bowel disease assessed as reduction in DSS-induced cellular infiltration in colon tissue at 5 to 20 mg/kg, po daily measured after 10 days by hematoxylin and eosin staining based histopathological analysis; type: functional, organism-based; conditions: dose 5-20 mg/kg, time 10.0 day
[4] = test system: Mus musculus; assay: Anti-inflammatory activity in DSS-induced C57BL/6 mouse model of inflammatory bowel disease assessed as increase in colon length at 5 to 20 mg/kg, po daily measured after 10 days; type: functional, organism-based; conditions: dose 5-20 mg/kg, time 10.0 day
[5] = test system: Mus musculus; assay: Anti-inflammatory activity in C57BL/6 mouse model of inflammatory bowel disease assessed as increase in DSS-induced IL-10 levels in serum administered orally daily measured after 10 days by ELISA method; type: functional, organism-based; conditions: dose 5-20 mg/kg, route po, time 10.0 day, DDE = dose-dependent effect
[6] = biological target: Cyclin-dependent kinase 8 (Homo sapiens) (UniProt P49336); assay: Binding affinity to CDK8 in human HCT-116 cells assessed as thermal stability at 49 degC treated for 4 hrs followed by compound washout by CETSA assay; type: cell-based; conditions: dose 0.5-10 µM, DDE = dose-dependent effect
[7] = test system: Mus musculus; assay: Anti-inflammatory activity in C57BL/6 mouse model of inflammatory bowel disease assessed as decrease in DSS-induced P38 phosphorylation in colon tissue at 5 to 20 mg/kg, po measured after 10 days by western blot analysis; type: functional, organism-based; conditions: dose 5-20 mg/kg, time 10.0 day, DDE = dose-dependent effect
[8] = test system: Mus musculus; assay: Anti-inflammatory activity in DSS-induced C57BL/6 mouse model of inflammatory bowel disease assessed as increase in IL-10 expression in colon tissue at 5 to 20 mg/kg, po measured after 10 days by western blot analysis; type: functional, organism-based; conditions: dose 5-20 mg/kg, time 10.0 day
[9] = Acute toxicity in 12 hr fasted ICR mouse assessed as effect on liver at 2000 mg/kg, po measured after 7 days by hematoxylin and eosin staining based histopathological analysis; type: organism-based; conditions: in vivo, 168 h, time 7 day
[10] = test system: Mus musculus; assay: Anti-inflammatory activity in DSS-induced C57BL/6 mouse model of inflammatory bowel disease assessed as increase in JAK1 phosphorylation in colon tissue at 5 to 20 mg/kg, po measured after 10 days by western blot analysis; type: functional, organism-based; conditions: dose 5-20 mg/kg, time 10.0 day
[11] = Tmax in Sprague-Dawley rat at 10 mg/kg, po measured for 3 to 1440 mins by HPLC analysis; type: ADME, organism-based; conditions: in vivo, time 3-1440 min
[12] = test system: Mus musculus; assay: Anti-inflammatory activity in C57BL/6 mouse model of inflammatory bowel disease assessed as reversal of DSS-induced TLR7 expression in colon tissue at 5 to 20 mg/kg, po measured after 10 days by western blot analysis; type: functional, organism-based; conditions: dose 5-20 mg/kg, time 10.0 day
[13] = Stability of compound in human liver microsome assessed as intrinsic clearance by HPLC analysis; type: ADME; conditions: liver microsomes, read-out: CLH
[14] = test system: Mus musculus; assay: Anti-inflammatory activity in C57BL/6 mouse model of inflammatory bowel disease assessed as reduction in number of DSS-induced inflammatory cells in colon tissue at 5 to 20 mg/kg, po daily measured after 10 days by hematoxylin and eosin staining based histopathological analysis; type: functional, organism-based; conditions: dose 5-20 mg/kg, time 10.0 day
[15] = biological target: T1, Cyclin-dependent kinase 8 (Mus musculus) (UniProt Q8R3L8); assay: Inhibition of CDK8 in IFN-gamma-stimulated mouse BMDC cells assessed as STAT-1 phosphorylation at Ser727 at 1 to 4 uM treated for 2 hrs followed by IFN-gamma stimulation for 12 hrs by western blot analysis; type: cell-based; conditions: dose 1-4 µM, time 14.0 hrs
T1 sequence (whole entry): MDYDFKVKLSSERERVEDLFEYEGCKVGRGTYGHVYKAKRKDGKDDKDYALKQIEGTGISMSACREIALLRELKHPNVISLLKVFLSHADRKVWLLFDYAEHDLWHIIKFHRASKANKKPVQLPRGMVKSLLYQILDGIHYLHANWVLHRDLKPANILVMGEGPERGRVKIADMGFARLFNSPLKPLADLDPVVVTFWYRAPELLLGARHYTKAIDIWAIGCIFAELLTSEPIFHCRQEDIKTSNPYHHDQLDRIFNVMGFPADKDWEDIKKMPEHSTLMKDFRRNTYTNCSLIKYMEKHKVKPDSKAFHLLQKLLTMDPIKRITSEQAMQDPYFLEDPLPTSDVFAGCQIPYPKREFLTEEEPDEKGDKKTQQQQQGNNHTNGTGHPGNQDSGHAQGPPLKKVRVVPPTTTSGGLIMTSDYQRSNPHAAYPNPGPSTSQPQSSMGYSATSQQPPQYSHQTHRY

[16] = test system: Mus musculus; assay: Anti-inflammatory activity in C57BL/6 mouse model of inflammatory bowel disease assessed as decrease in DSS-induced ERK phosphorylation in colon tissue at 5 to 20 mg/kg, po measured after 10 days by western blot analysis; type: functional, organism-based; conditions: dose 5-20 mg/kg, time 10.0 day, DDE = dose-dependent effect
[17] = Cmax in Sprague-Dawley rat at 5 mg/kg, iv measured for 3 to 1440 mins by HPLC analysis; type: ADME, organism-based; conditions: in vivo
[18] = Bioavailability in Sprague-Dawley rat at 10 mg/kg, po measured for 3 to 1440 mins by HPLC analysis; type: ADME, organism-based; conditions: in vivo, time 3-1440 min
[19] = Half life in Sprague-Dawley rat at 10 mg/kg, po measured for 3 to 1440 mins by HPLC analysis; type: ADME, organism-based; conditions: in vivo, time 3-1440 min
[20] = test system: Mus musculus; assay: Anti-inflammatory activity in C57BL/6 mouse model of inflammatory bowel disease assessed as suppression of DSS-induced NF-kappa-B p65 expression in colon tissue at 5 to 20 mg/kg, po measured after 10 days by western blot analysis; type: functional, organism-based; conditions: dose 5-20 mg/kg, time 10.0 day
[21] = Acute toxicity in 12 hr fasted ICR mouse assessed as effect on spleen at 2000 mg/kg, po measured after 7 days by hematoxylin and eosin staining based histopathological analysis; type: organism-based; conditions: in vivo, 168 h, time 7 day
[22] = test system: Mus musculus; assay: Anti-inflammatory activity in DSS-induced C57BL/6 mouse model of inflammatory bowel disease assessed as increase in STAT3 phosphorylation in colon tissue at 5 to 20 mg/kg, po measured after 10 days by western blot analysis; type: functional, organism-based; conditions: dose 5-20 mg/kg, time 10.0 day
[23] = test system: Mus musculus; assay: Anti-inflammatory activity in C57BL/6 mouse model of inflammatory bowel disease assessed as reduction in DSS-induced epithelium destruction in colon tissue at 5 to 20 mg/kg, po daily measured after 10 days by hematoxylin and eosin staining based histopathological analysis; type: functional, organism-based; conditions: dose 5-20 mg/kg, time 10.0 day
[24] = test system: Mus musculus; assay: Anti-inflammatory activity in C57BL/6 mouse model of inflammatory bowel disease assessed as decrease in DSS-induced TNF-alpha levels in serum at 5 to 20 mg/kg, po daily measured after 10 days by ELISA method; type: functional, organism-based; conditions: dose 5-20 mg/kg, time 10.0 day
[25] = MRT in Sprague-Dawley rat at 5 mg/kg, iv measured for 3 to 1440 mins by HPLC analysis; type: ADME, organism-based; conditions: in vivo, time 3-1440 min

Sequence of Cyclin-dependent kinase 8 (Homo sapiens) (P49336 whole entry): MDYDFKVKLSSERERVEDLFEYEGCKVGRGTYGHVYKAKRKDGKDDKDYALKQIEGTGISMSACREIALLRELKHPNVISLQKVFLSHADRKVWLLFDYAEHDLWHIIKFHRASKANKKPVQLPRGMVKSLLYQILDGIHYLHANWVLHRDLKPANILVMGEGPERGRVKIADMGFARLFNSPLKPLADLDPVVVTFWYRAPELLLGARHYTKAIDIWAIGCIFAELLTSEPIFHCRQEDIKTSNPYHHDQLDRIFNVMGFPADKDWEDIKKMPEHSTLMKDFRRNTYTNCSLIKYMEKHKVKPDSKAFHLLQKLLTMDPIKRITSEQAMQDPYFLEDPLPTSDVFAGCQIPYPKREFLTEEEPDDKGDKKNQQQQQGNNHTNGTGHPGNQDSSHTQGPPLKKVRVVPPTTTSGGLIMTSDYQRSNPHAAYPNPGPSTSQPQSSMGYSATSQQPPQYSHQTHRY

SMILES: CCc1ccccc1NC(=O)c1cncc(-c2ccc(C(=O)N3CCNCC3)cc2)c1
- Activity [1]: Active
- inhibition [2]: Active
- Activity [3]: Active
- Activity [4]: Active
- Activity [5]: Dde
- Activity [6]: Dde
- Activity [7]: Dde
- Activity [8]: Active
- Activity [9]: Non-Toxic
- Activity [10]: Active
- Tmax [11]: 0.73 h
- Activity [12]: Active
- microsomal CLint [13]: 5.5 µL/min/mg
- Activity [14]: Active
- inhibition [15]: Active
- Activity [16]: Dde
- Cmax [17]: 528 ng/mL
- bioavailability [18]: 29.3%
- half-life [19]: 2.18 h
- Activity [20]: Active
- Activity [21]: Non-Toxic
- Activity [22]: Active
- Activity [23]: Active
- Activity [24]: Active
- MRT [25]: 1.97 h
